Laboratory results published in ChEMBL document CHEMBL1134689, “Novel C-terminus modifications of the Dmt-Tic motif: a new class of dipeptide analogues showing altered pharmacological profiles toward the opioid receptors” (J Med Chem, 2001).
pEC50, pIC50: −log10 of the molar value. Calls of active or inactive are those of the source. No cut-off for these calls is given here.

Tests used:
[1] = target: T1, Delta-type opioid receptor (Homo sapiens, UniProt P41143); test: Binding affinity at cloned human delta-opioid receptor
[2] = target: T2, Kappa-type opioid receptor (Homo sapiens, UniProt P41145); test: Binding affinity at cloned human opioid receptor kappa 1
[3] = target: T1, Delta-type opioid receptor; test: Agonist potency using GTP-gamma [35S]- binding assay for delta-opioid receptor; Inactive
Mu-type opioid receptor [4] = target: T3, Mu-type opioid receptor (Homo sapiens, UniProt P35372); test: Binding affinity at cloned human mu-opioid receptor
Mu-type opioid receptor [5] = target: T3, Mu-type opioid receptor; test: Agonist potency using GTP-gamma [35S]- binding assay for mu-opioid receptor
[6] = target: T2, Kappa-type opioid receptor; test: Compound was tested for maximum stimulation of opioid receptor kappa 1 by GTP-gamma [35S]- binding assay
[7] = target: T2, Kappa-type opioid receptor; test: Agonist potency using GTP-gamma [35S]- binding assay for opioid receptor kappa 1
[8] = target: T1, Delta-type opioid receptor; test: Agonist potency using GTP-gamma [35S]- binding assay for delta-opioid receptor
Mu-type opioid receptor [9] = target: T3, Mu-type opioid receptor; test: Agonist potency using GTP-gamma [35S]- binding assay for mu-opioid receptor; Inactive
[10] = target: T2, Kappa-type opioid receptor

T3 sequence (P35372 whole entry): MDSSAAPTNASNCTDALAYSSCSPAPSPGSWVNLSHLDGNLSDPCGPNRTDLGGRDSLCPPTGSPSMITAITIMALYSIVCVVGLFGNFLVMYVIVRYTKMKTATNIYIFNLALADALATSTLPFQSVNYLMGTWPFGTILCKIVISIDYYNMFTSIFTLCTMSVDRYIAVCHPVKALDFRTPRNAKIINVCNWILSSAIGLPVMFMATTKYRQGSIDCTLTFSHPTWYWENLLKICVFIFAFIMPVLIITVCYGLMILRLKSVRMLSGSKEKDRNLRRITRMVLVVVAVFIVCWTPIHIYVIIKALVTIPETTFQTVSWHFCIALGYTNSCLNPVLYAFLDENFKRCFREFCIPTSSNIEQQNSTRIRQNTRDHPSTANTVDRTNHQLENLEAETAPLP
T2 sequence (P41145 whole entry): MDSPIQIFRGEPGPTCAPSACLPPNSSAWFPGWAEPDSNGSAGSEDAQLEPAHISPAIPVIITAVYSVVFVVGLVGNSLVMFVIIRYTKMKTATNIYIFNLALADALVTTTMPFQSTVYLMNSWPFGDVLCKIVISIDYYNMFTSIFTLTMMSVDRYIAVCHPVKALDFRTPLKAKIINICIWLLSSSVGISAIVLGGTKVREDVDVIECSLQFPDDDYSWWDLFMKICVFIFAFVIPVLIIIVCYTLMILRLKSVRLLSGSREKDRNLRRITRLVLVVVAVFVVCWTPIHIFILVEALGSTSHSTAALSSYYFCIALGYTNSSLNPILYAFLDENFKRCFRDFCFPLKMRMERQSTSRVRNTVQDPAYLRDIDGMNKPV
T1 sequence (P41143 whole entry): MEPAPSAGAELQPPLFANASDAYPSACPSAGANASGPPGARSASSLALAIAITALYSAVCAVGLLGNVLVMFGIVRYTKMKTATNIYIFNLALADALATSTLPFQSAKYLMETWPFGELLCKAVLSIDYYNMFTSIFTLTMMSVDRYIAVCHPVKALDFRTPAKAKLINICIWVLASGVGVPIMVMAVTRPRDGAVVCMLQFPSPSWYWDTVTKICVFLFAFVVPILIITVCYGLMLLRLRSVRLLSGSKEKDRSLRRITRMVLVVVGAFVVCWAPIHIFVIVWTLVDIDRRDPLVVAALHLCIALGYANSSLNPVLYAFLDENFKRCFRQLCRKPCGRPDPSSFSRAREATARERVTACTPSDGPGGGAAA

Row | Compound | pIC50 [1] | pIC50 [2] | NA [3] | pIC50 (Mu-type opioid receptor [4]) | pEC50 (Mu-type opioid receptor [5]) | Emax [6] [%] | pEC50 [7] | pEC50 [8] | NA (Mu-type opioid receptor [9]) | NA [10]
1 | Cc1cc(O)cc(C)c1C[C@H](N)C(=O)N1Cc2ccccc2C[C@H]1CNC(=O)c1ccccc1 | 9.62 | 6.51 | inactive | 9.01 | 6.96 | – | – | – | – | –
2 | Cc1cc(O)cc(C)c1C[C@H](N)C(=O)N1Cc2ccccc2C[C@H]1CNCC(C)(C)C | 9.00 | 8.82 | – | 8.89 | – | 102 | 8.85 | 8.55 | inactive | –
3 | C=CCOC[C@@H]1Cc2ccccc2CN1C(=O)[C@@H](N)Cc1c(C)cc(O)cc1C | 9.01 | 5.84 | inactive | 6.97 | – | – | – | – | – | –
4 | CC(=N)NC[C@@H]1Cc2ccccc2CN1C(=O)[C@@H](N)Cc1c(C)cc(O)cc1C | 8.00 | 6.00 | – | 7.48 | – | – | – | – | – | –
5 | Cc1cc(O)cc(C)c1C[C@H](N)C(=O)N1Cc2ccccc2C[C@H]1COCc1ccccc1 | 9.48 | 7.19 | – | 7.90 | – | – | – | 9.01 | inactive | –
6 | CCNC(=O)NC[C@@H]1Cc2ccccc2CN1C(=O)[C@@H](N)Cc1c(C)cc(O)cc1C | 9.00 | 6.49 | – | 6.77 | – | – | – | 8.24 | – | –
7 | Cc1cc(O)cc(C)c1C[C@H](N)C(=O)N1Cc2ccccc2C[C@H]1CO | 8.70 | < 5.00 | inactive | 6.38 | – | – | – | – | inactive | –
8 | CC(C)[C@H](NC(=O)[C@H](CC(=O)O)NC(=O)[C@H](Cc1ccccc1)NC(=O)[C@@H](C)NC(=O)[C@@H](N)Cc1ccc(O)cc1)C(=O)N[C@H](C(=O)NCC(N)=O)C(C)C | – | – | – | – | – | – | – | – | – | inactive
9 | Cc1cc(O)cc(C)c1C[C@H](N)C(=O)N1Cc2ccccc2C[C@H]1CNC(=S)NC(C)(C)C | 9.66 | 8.55 | – | 7.44 | – | – | 7.61 | 9.49 | – | –
10 | Cc1cc(O)cc(C)c1C[C@H](N)C(=O)N1Cc2ccccc2C[C@H]1CN(C)C | 9.01 | 6.10 | inactive | 7.08 | – | – | – | – | – | –
11 | Cc1cc(O)cc(C)c1C[C@H](N)C(=O)N1Cc2ccccc2C[C@H]1CN | 8.31 | 6.28 | inactive | 6.95 | – | – | – | – | – | –
12 | COC[C@@H]1Cc2ccccc2CN1C(=O)[C@@H](N)Cc1c(C)cc(O)cc1C | 8.89 | 5.60 | inactive | 6.34 | – | – | – | – | – | –
13 | Cc1cc(O)cc(C)c1C[C@H](N)C(=O)N1Cc2ccccc2C[C@H]1CN=[N+]=[N-] | 8.96 | 5.97 | – | 7.02 | – | – | – | 7.31 | – | –
14 | Cc1cc(O)cc(C)c1C[C@H](N)C(=O)N1Cc2ccccc2C[C@H]1CNC(=O)NC(C)(C)C | 9.77 | 8.89 | – | 7.21 | – | 96.9 | 8.16 | 9.19 | inactive | –
15 | CC(=O)OC[C@@H]1Cc2ccccc2CN1C(=O)[C@@H](N)Cc1c(C)cc(O)cc1C | 8.96 | 5.51 | inactive | 8.33 | – | – | – | – | inactive | –
16 | Cc1cc(O)cc(C)c1C[C@H](N)C(=O)N1Cc2ccccc2C[C@H]1CNC(=S)Nc1ccccc1 | 9.57 | 7.29 | – | 8.27 | – | – | – | 8.77 | – | –
17 | Cc1cc(O)cc(C)c1C[C@H](N)C(=O)N1Cc2ccccc2C[C@H]1C | 8.77 | 6.12 | inactive | 8.52 | – | – | – | – | – | –
18 | Cc1cc(O)cc(C)c1C[C@H](N)C(=O)N1Cc2ccccc2C[C@H]1CN=C(N)N | 8.49 | 6.46 | – | 7.89 | – | – | – | – | – | –
19 | Cc1cc(O)cc(C)c1C[C@H](N)C(=O)N1Cc2ccccc2C[C@H]1CNC(=O)Nc1ccccc1 | 9.89 | 8.32 | – | 9.00 | 7.73 | 81.7 | 6.79 | 9.12 | – | –
20 | Cc1cc(O)cc(C)c1C[C@H](N)C(=O)N1Cc2ccccc2C[C@H]1CNC(=O)NC12CC3CC(CC(C3)C1)C2 | 9.54 | 8.39 | inactive | 8.96 | – | 81.7 | 7.94 | – | inactive | –
21 | Cc1cc(O)cc(C)c1C[C@H](N)C(=O)N1Cc2ccccc2C[C@H]1CNC(=O)C(C)(C)C | 9.10 | 6.40 | inactive | 7.60 | – | – | – | – | – | –
22 | CC(=O)NC[C@@H]1Cc2ccccc2CN1C(=O)[C@@H](N)Cc1c(C)cc(O)cc1C | 9.10 | 5.03 | – | 7.79 | – | – | – | 8.82 | – | –
23 | Cc1cc(O)cc(C)c1C[C@H](N)C(=O)N1Cc2ccccc2C[C@H]1CNCc1ccccc1 | 9.39 | 8.82 | – | 9.19 | 7.43 | 100 | 8.17 | 9.04 | – | –
24 | Cc1cc(O)cc(C)c1C[C@H](N)C(=O)N1Cc2ccccc2C[C@H]1C/N=C(/S)NC(C)(C)C | – | – | – | – | – | 99.6 | – | – | – | –
